Test results reported in patent US20250228239A1, “MOLECULES HAVING PESTICIDAL UTILITY, AND INTERMEDIATES, COMPOSITIONS, AND PROCESSES, RELATED THERETO” (priority 2024, published 2025).

Legend:
Format in all cases: in vivo
[1] = system: Beet Armyworm (Spodoptera exigua, LAPHEG); experiment: Bioassays on Beet Armyworm (BAW), 128-well diet tray assay; settings: Spodoptera exigua; Beet Armyworm; rating class; read-out: BAW
In short: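 Eight diet wells per compound were treated at 50 μg/cm^2 (acetone-water 90:10), dried, then infested with 1–5 second-instar larvae each. After five to seven days at 25 °C under 14:10 photoperiod, mortality was scored and averaged across wells.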

[2] = system: Cabbage Looper (Trichoplusia ni, TRIPNI); experiment: Bioassays on Cabbage Looper (CL), 128-well diet tray assay; settings: Trichoplusia ni; Cabbage Looper; rating class; read-out: CL
In short: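 One to five second-instar larvae per well on artificial diet surface-treated with 50 μg/cm^2 test molecule (applied in 90:10 acetone-water, dried). Held 5–7 days at 25° C, 14:10 light-dark; percent mortality recorded per well and averaged over eight wells.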

[3] = system: Green Peach Aphid (Myzus persicae, MYZUPE); experiment: Bioassays on Green Peach Aphid (GPA), foliar spray on cabbage seedlings; settings: 72 h, Green Peach Aphid, rating class, read-out: GPA
In short: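 Percent control (Abbott-corrected versus solvent-sprayed plants) comes from live-aphid counts three days after treatment at about 25° C. Test solution at 200 ppm was sprayed to runoff onto both leaf surfaces of cabbage seedlings infested a day earlier with 20-50 aphids; four replicate pots.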

[4] = system: Yellow Fever Mosquito (Aedes aegypti, AEDSAE); settings: Yellow Fever Mosquito; rating class
In short: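 Compounds from 4000 ppm DMSO stocks were diluted in 90:10 water/acetone and dispensed into wells, then infested with about 1-day-old larvae in liver-powder water. Covered plates were held at room temperature for 3 days and each well was scored for mortality against a rating scale; six replicate plates per compound.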

## O=C(COC(F)(F)F)Nc1c(F)ccc(NC(=O)c2cc(NC(=O)[C@H]3[C@H](c4ccc(F)c(C(F)(F)F)c4)C3(Cl)Cl)ccc2Cl)c1F [F1742, 2-Chloro-5-((1R,3R)-2,2-dichloro-3-(4-fluoro-3-(trifluoromethyl)phenyl)cyclopropane-1-carboxamido)-N-(2,4-difluoro-3-(2-(trifluoromethoxy)acetamido)phenyl)benzamide]
[1]
  pest or weed control at 50 µg/cm2: 50 to 100%
[2]
  pest or weed control at 50 µg/cm2: 50 to 100%
[3]
  pest or weed control at 200 µg/mL: 0 to 80%
[4]
  YFM: A (80–100)
